Values of other authors in patent US20100210643A1, “sGC STIMULATORS, sGC ACTIVATORS AND COMBINATIONS FOR THE TREATMENT OF UROLOGICAL DISORDERS” (BAYER SCHERING PHARMA AKTIENGESELLSCHAFT, priority 2007, published 2010).

Experiments:
[1] = system: bladder of female Guinea Pigs; details: literature (Gillespie 2004)
[2] = system: pre-contracted human prostate tissue; details: in vitro; literature (Uckert 2001)

Row | Compound | relaxation of bladder [1] | relaxation of pre-contracted human prostate tissue [2]
1 | CC(C)Cn1c(=O)n(C)c(=O)c2[nH]cnc21 [IBMX] | could relax | –
2 | CCCOc1ccccc1-c1nc2nn[nH]c2c(=O)[nH]1 [Zaprinast] | ineffective | able to relax
